Test results taken from patent US20090062369A1, “USE OF SECRETORY PHOSPHOLIPASE A2 (SPLA2) INHIBITORS TO DECREASE SPLA2 LEVELS” (priority 2007, published 2009).

Test system: serum sPLA2
Assay: Effect of twice-a-day oral A-002 on serum sPLA2 levels in subjects with stable coronary artery disease (Example 6)
Assay type: in vivo, human
Procedure: The protocol for preparing standard curve, test, and quality control samples for use in the assay disclosed herein is set forth in Example 5. Samples are prepared according to this protocol, then loaded in duplicate onto a plate (Cayman catalog no. 485002 or equivalent) that has been pre-coated with a monoclonal sPLA2 antibody (“capture antibody”) that specifically binds sPLA2. In certain embodiments, the capture antibody may interact with a specific form of sPLA2, such as for example sPLA2 type IIA.
sPLA2 acetylcholinesterase:Fab′ conjugate (AChE:Fab′) (“conjugate”) (Cayman catalog no. 485000 or equivalent) is reconstituted in EIA buffer (Cayman catalog no. 400060 or equivalent). Cayman EIA buffer is 1M phosphate, pH 7.0, 1% BSA, 4M NaCl, 10 mM EDTA, and 0.1% sodium azide. Reconstituted conjugate is added to each well of the plate. The conjugate binds a different sPLA2 epitope than the capture antibody, allowing the capture antibody and the conjugate to form a “sandwich” that is immobilized on the plate. Excess reagents are washed away, and the plate is covered and incubated overnight at 2-8° C.
Prior to development, the wells are washed five to six times with wash buffer (Cayman catalog no. 400062 or equivalent). To develop the plate, Ellman's Reagent (Cayman catalog no. 400050 or equivalent) is reconstituted in water and added to each well according to manufacturer instructions. The reconstituted Ellman's Reagent must be used the same day it is prepared because it is unstable. Ellman's Reagent contains an AChE substrate. Specifically, Ellman's Reagent contains acetylthiocholine and 5,5′-dithio-bis-(2-nitrobenzoic acid). Hydrolysis of acetylthiocholine by acetylcholinesterase produces thiocholine, which reacts with 5,5′-dithio-bis-(2-nitrobenzoic acid) to produce 5-thio-2-nitrobenzoic acid. 5-thio-2-nitrobenzoic acid has a strong absorbance at 412 nm. The intensity of absorbance at this wavelength is directly proportional to the concentration of bound conjugate, which is in turn is directly proportional to the concentration of sPLA2 present (Absorbance a [AChE:Fab′ conjugate] α [sPLA2]). During the development step, the plate is shaken, preferably in the dark. In certain embodiments the development time for the assay is 0.5 to 3 hours, preferably 1 to 1.5 hours. At the end of the development period, the high sPLA2 standards should have greater yellow color development than the zero standards. Absorbance of each well is measured at 400-420 nm using a micro-well plate reader. In certain embodiments, absorbance is measured at about 405 nm.
Absorbance readings for duplicate wells are averaged, and the relative standard deviation and % CV are calculated. Standard curve data are used to generate a four parameter curve, and quality control and test samples are measured against the appropriate standard curve (i.e., the standard curve with the same serum content). In order for a test to be considered valid, variation between duplicate wells should be no more than about 25%, and negative controls (blanks) for each standard curve should have a mean absorbance of less than about 0.3.
The method disclosed herein for measuring sPLA2 levels in serum was utilized to determine the effect of administering certain sPLA2 inhibitors on sPLA2 levels in 84 human subjects. The subjects included 24 subjects with diabetes, 32 subjects with metabolic syndrome, and 75 subjects receiving statin treatment. Subjects were administered the sPLA2 inhibitor A-002, a prodrug form of A-001, twice a day at varying dosages from 50 to 500 mg. The structures of A-002and A-001 are set forth below. At two weeks and four weeks after the first administration, sPLA2 levels were measured and compared to pre-administration baseline levels.
84 subjects with stable coronary artery disease were randomized to receive placebo or A-002 via oral administration twice a day over a four week administration period. […]

[1] = A-002 (500 mg), non-statin subgroup of ITT population
[2] = A-002 Total (all dose groups), ITT subjects exhibiting at least 3 out of 5 metabolic syndrome criteria
[3] = A-002 Total (all dose groups), non-statin subgroup of ITT population
[4] = Total (all doses), ITT population
[5] = Total (all doses), diabetes subgroup of ITT population
[6] = Total (all doses), non-diabetes subgroup of ITT population
[7] = Total (all doses), statin subgroup of ITT population

CCc1c(C(=O)C(N)=O)c2c(OCC(=O)OC)cccc2n1Cc1ccccc1 [A-002, [[3-(2-Amino-1,2-dioxoethyl)-2-ethyl-1-(phenylmethyl)-1H-indol-4-yl]oxy]acetic acid methyl ester]
sPLA2 level, Week 4, Range (A-002 (500 mg), ITT subjects exhibiting at least 3 out of 5 metabolic syndrome criteria): 0.05 to 0.10 ng/mL
sPLA2 level, Baseline, Mean [1]: 2.30 ng/mL
sPLA2 level, Baseline, Median [1]: 2.30 ng/mL
sPLA2 level, Baseline, Range [1]: 1.80 to 2.80 ng/mL
sPLA2 level, Change from baseline at week 2, Mean [1]: -2.25 ng/mL
sPLA2 level, Change from baseline at week 2, Median [1]: -2.25 ng/mL
sPLA2 level, Change from baseline at week 2, Range [1]: -2.75 to -1.75 ng/mL
sPLA2 level, Change from baseline at week 4, Mean [1]: -2.08 ng/mL
sPLA2 level, Change from baseline at week 4, Median [1]: -2.08 ng/mL
sPLA2 level, Change from baseline at week 4, Range [1]: -2.40 to -1.75 ng/mL
sPLA2 level, Week 2, Mean [1]: 0.05 ng/mL
sPLA2 level, Week 2, Median [1]: 0.05 ng/mL
sPLA2 level, Week 2, Range [1]: 0.05 to 0.05 ng/ml
sPLA2 level, Week 4, Mean [1]: 0.23 ng/mL
sPLA2 level, Week 4, Median [1]: 0.23 ng/mL
sPLA2 level, Week 4, Range [1]: 0.05 to 0.40 ng/mL
sPLA2 level, Baseline, Mean [2]: 3.17 ng/mL
sPLA2 level, Baseline, Median [2]: 2.70 ng/mL
sPLA2 level, Baseline, Range [2]: 0.05 to 8.80 ng/mL
sPLA2 level, Change from baseline at week 2, Mean [2]: -2.41 ng/mL
sPLA2 level, Change from baseline at week 2, Median [2]: -2.45 ng/mL
sPLA2 level, Change from baseline at week 2, Range [2]: −5.30 to +2.85 ng/ml
sPLA2 level, Change from baseline at week 4, Mean [2]: -2.76 ng/mL
sPLA2 level, Change from baseline at week 4, Median [2]: -2.30 ng/mL
sPLA2 level, Change from baseline at week 4, Range [2]: -6.40 to 0.00 ng/mL
sPLA2 level, Week 2, Mean [2]: 0.65 ng/mL
sPLA2 level, Week 2, Median [2]: 0.30 ng/mL
sPLA2 level, Week 2, Range [2]: 0.05 to 4.00 ng/mL
sPLA2 level, Week 4, Mean [2]: 0.43 ng/mL
sPLA2 level, Week 4, Median [2]: 0.25 ng/mL
sPLA2 level, Week 4, Range [2]: 0.05 to 2.40 ng/mL
sPLA2 level, Baseline, Mean [3]: 2.92 ng/mL
sPLA2 level, Baseline, Median [3]: 2.80 ng/mL
sPLA2 level, Baseline, Range [3]: 1.80 to 4.90 ng/mL
sPLA2 level, Change from baseline at week 2, Mean [3]: -2.13 ng/mL
sPLA2 level, Change from baseline at week 2, Median [3]: -2.00 ng/mL
sPLA2 level, Change from baseline at week 2, Range [3]: -2.75 to -1.75 ng/mL
sPLA2 level, Change from baseline at week 4, Mean [3]: -2.49 ng/mL
sPLA2 level, Change from baseline at week 4, Median [3]: -2.20 ng/mL
sPLA2 level, Change from baseline at week 4, Range [3]: -4.40 to -1.70 ng/mL
sPLA2 level, Week 2, Mean [3]: 0.58 ng/mL
sPLA2 level, Week 2, Median [3]: 0.48 ng/mL
sPLA2 level, Week 2, Range [3]: 0.05 to 1.30 ng/mL
sPLA2 level, Week 4, Mean [3]: 0.65 ng/mL
sPLA2 level, Week 4, Median [3]: 0.50 ng/mL
sPLA2 level, Week 4, Range [3]: 0.05 to 1.20 ng/mL
serum sPLA2 levels (ITT population, stable coronary artery disease, A-002 50, 100, 250 or 500 mg oral twice a day, end of weeks two and four vs baseline, dose-independent): decreased serum sPLA2 levels
sPLA2 Change from baseline at week 2, Mean [4]: -2.35 ng/mL
sPLA2 Change from baseline at week 2, Median [4]: -2.40 ng/mL
sPLA2 Change from baseline at week 2, Range [4]: −5.30 to +2.85 ng/ml
sPLA2 Change from baseline at week 4, Mean [4]: -2.53 ng/mL
sPLA2 Change from baseline at week 4, Median [4]: -2.35 ng/mL
sPLA2 Change from baseline at week 4, Range [4]: -6.40 to 0.20 ng/mL
sPLA2 level, Baseline, Mean [4]: 2.99 ng/mL
sPLA2 level, Baseline, Median [4]: 2.70 ng/mL
sPLA2 level, Baseline, Range [4]: 0.05 to 8.80 ng/mL
sPLA2 level, Week 2, Mean [4]: 0.60 ng/mL
sPLA2 level, Week 2, Median [4]: 0.30 ng/mL
sPLA2 level, Week 2, Range [4]: 0.05 to 4.40 ng/mL
sPLA2 level, Week 4, Mean [4]: 0.51 ng/mL
sPLA2 level, Week 4, Median [4]: 0.35 ng/mL
sPLA2 level, Week 4, Range [4]: 0.05 to 2.40 ng/mL
sPLA2 Change from baseline at week 2, Mean [5]: -2.03 ng/mL
sPLA2 Change from baseline at week 2, Median [5]: -2.40 ng/mL
sPLA2 Change from baseline at week 2, Range [5]: −4.80 to +2.85 ng/ml
sPLA2 Change from baseline at week 4, Mean [5]: -2.31 ng/mL
sPLA2 Change from baseline at week 4, Median [5]: -1.90 ng/mL
sPLA2 Change from baseline at week 4, Range [5]: −5.70 to +0.20 ng/ml
sPLA2 level, Baseline, Mean [5]: 2.91 ng/mL
sPLA2 level, Baseline, Median [5]: 2.75 ng/mL
sPLA2 level, Baseline, Range [5]: 0.05 to 6.00 ng/mL
sPLA2 level, Week 2, Mean [5]: 0.67 ng/mL
sPLA2 level, Week 2, Median [5]: 0.50 ng/mL
sPLA2 level, Week 2, Range [5]: 0.05 to 2.90 ng/mL
sPLA2 level, Week 4, Mean [5]: 0.53 ng/mL
sPLA2 level, Week 4, Median [5]: 0.50 ng/mL
sPLA2 level, Week 4, Range [5]: 0.05 to 1.50 ng/mL
sPLA2 Change from baseline at week 2, Mean [6]: -2.48 ng/mL
sPLA2 Change from baseline at week 2, Median [6]: -2.40 ng/mL
sPLA2 Change from baseline at week 2, Range [6]: -5.30 to -0.40 ng/mL
sPLA2 Change from baseline at week 4, Mean [6]: -2.63 ng/mL
sPLA2 Change from baseline at week 4, Median [6]: -2.45 ng/mL
sPLA2 Change from baseline at week 4, Range [6]: -6.40 to -0.55 ng/mL
sPLA2 level, Baseline, Mean [6]: 3.02 ng/mL
sPLA2 level, Baseline, Median [6]: 2.60 ng/mL
sPLA2 level, Baseline, Range [6]: 0.60 to 8.80 ng/mL
sPLA2 level, Week 2, Mean [6]: 0.57 ng/mL
sPLA2 level, Week 2, Median [6]: 0.30 ng/mL
sPLA2 level, Week 2, Range [6]: 0.05 to 4.40 ng/mL
sPLA2 level, Week 4, Mean [6]: 0.51 ng/mL
sPLA2 level, Week 4, Median [6]: 0.30 ng/mL
sPLA2 level, Week 4, Range [6]: 0.05 to 2.40 ng/mL
sPLA2 Change from baseline at week 2, Mean [7]: -2.37 ng/mL
sPLA2 Change from baseline at week 2, Median [7]: -2.43 ng/mL
sPLA2 Change from baseline at week 2, Range [7]: −5.30 to +2.85 ng/ml
sPLA2 Change from baseline at week 4, Mean [7]: -2.53 ng/mL
sPLA2 Change from baseline at week 4, Median [7]: -2.43 ng/mL
sPLA2 Change from baseline at week 4, Range [7]: −6.40 to +0.20 ng/ml
sPLA2 level, Baseline, Mean [7]: 3.00 ng/mL
sPLA2 level, Baseline, Median [7]: 2.70 ng/mL
sPLA2 level, Baseline, Range [7]: 0.05 to 8.80 ng/mL
sPLA2 level, Week 2, Mean [7]: 0.60 ng/mL
sPLA2 level, Week 2, Median [7]: 0.30 ng/mL
sPLA2 level, Week 2, Range [7]: 0.05 to 4.40 ng/mL
sPLA2 level, Week 4, Mean [7]: 0.50 ng/mL
sPLA2 level, Week 4, Median [7]: 0.30 ng/mL
sPLA2 level, Week 4, Range [7]: 0.05 to 2.40 ng/mL
sPLA2 levels compared to pre-administration baseline (all subject subpopulations (diabetic/non-diabetic, metabolic syndrome/non-metabolic syndrome, statin/non-statin), all dosages 50 to 500 mg twice a day, two and four weeks): substantial decrease in sPLA2 levels
serum sPLA2 levels (diabetic and non-diabetic subpopulations, A-002 50-500 mg oral twice a day, weeks two and four): decrease was observed
serum sPLA2 levels (metabolic syndrome subpopulation, A-002 50-500 mg oral twice a day, weeks two and four): decrease was observed
serum sPLA2 levels (statin and non-statin subpopulations, A-002 50-500 mg oral twice a day, weeks two and four): decrease was observed
